Source: patent publication US9303005B2, “Use of dibenzofuranone derivatives to inhibit kinases” (priority 2010, dated 2016)
Blank lines part the entries; values can stand above or below the compound they belong to.

Columns and labels:
CK2 = conditions: prior-art value; read-out: IC50 (CK2, literature); cited from earlier work
[1] = prior art; lactam ring hydrolysis; cited from earlier work
CK2 holoenzyme = CK2 holoenzyme (Homo sapiens (Human), UniProt P68400); assay: capillary electrophoretic CK2 inhibition/activity test (E-peptide substrate); assay type: biochemical; conditions: for IC50: capillary electrophoretic test, ten minutes pre-incubation; for CK2-activity at 10 μM: residual CK2 activity at 10 μM substance, values below 4% not reliably quantifiable
Chain of CK2 holoenzyme (P68400 whole entry): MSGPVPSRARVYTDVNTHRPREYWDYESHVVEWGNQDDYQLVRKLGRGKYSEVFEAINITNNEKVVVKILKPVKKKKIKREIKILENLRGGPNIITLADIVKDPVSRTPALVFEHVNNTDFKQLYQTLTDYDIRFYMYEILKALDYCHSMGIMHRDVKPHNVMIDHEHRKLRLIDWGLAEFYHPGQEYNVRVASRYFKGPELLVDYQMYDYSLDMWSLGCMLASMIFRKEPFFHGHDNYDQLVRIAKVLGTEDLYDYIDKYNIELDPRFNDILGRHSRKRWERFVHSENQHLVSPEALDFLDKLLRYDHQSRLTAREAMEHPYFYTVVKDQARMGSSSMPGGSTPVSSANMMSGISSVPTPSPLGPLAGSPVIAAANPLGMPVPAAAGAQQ
Chain of CK2 holoenzyme (P67870 whole entry partner): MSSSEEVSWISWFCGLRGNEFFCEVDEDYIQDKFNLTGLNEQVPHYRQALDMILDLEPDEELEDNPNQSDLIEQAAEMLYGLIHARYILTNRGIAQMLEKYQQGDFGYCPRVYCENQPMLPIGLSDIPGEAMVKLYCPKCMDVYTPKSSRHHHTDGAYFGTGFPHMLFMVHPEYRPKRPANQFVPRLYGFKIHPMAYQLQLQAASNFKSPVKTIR
Protocol: To this end, the capillary electrophoretic CK2 inhibition test using E-peptide as the substrate was carried out. […] Ten concentrations between 0.0001 μM and 10 μM were investigated for this purpose.
Kuckländer (Kuckländer and Töberich, 1982; Bollig, 2007).

LNCaP cells = assay: MTT test, viability of LNCaP cells; assay type: cell-based, human; conditions: relative to untreated cells; for viability at 75 µM / viability at 25 µM / viability at 50 µM: Homo sapiens, LNCaP
Protocol: The viability was determined with the aid of the MTT test.
A MTT test was used to determine the effect of TF on the viability of LNCaP cells. To this end, these cell lines were treated with three concentrations of TF (25 μM, 50 μM, 75 μM). The effect was determined after 24 h, 48 h and 72 h as the relative viability compared with untreated cells. […] After treating the LNCaP cells with TF, both the effects of increasing the concentration and also of prolonging the incubation time could be recorded. After 24 hours incubation with 25 μM of TF, the viability had already dropped to 45% and after the same incubation time with 50 μM of TF, it had dropped further to 30%. […] The effects after 24 h could be reinforced in each case by extending the incubation time. Thus, after 48 hours incubation with 25 μM, 50 μM and 75 μM of TF, a viability of 37%, 15% or 12% was observed. […] Thus, an incubation time of 24 h had only a small effect. […] Only at the highest concentration of 75 μM, a reduction to 45% after 48 h was recorded, and after 72 h, the viability was still 17% (FIG. 5B). […] In summary, it has been shown that the viability of LNCaP cells is reduced by both substances.

[2] = test system: PARP cleavage in LNCaP cells; assay: PARP cleavage in LNCaP cells (Western Blot); assay type: cell-based, human
Protocol: The controls were cells which had only been treated with DMSO (0 μM). After SDS-PAGE and Western Blotting, complete PARP (115 kDa) and the 89 kDa fragment obtained after caspase cleavage with the aid of an anti-PARP antibody were labelled.
Next, we investigated whether the TF-mediated reduction in cell viability could be related to apoptotic events. To this end, cleavage of poly(ADP-ribose)-polymerase (PARP) in cells was assayed. Caspase 3 cleaves the 115 kDa PARP into two stable fragments: the 24 kDa DNA-binding N-terminal domain and the 89 kDa C-terminal fragment. This specific proteolysis of PARP characterizes the irreversible point of initiation apoptosis and can be assayed in a Western Blot of cell lysates with a specific PARP antibody. […] This effect was observed both after an incubation time of 24 h and also, more strongly, after 48 h.

[3] = test system: endogenous CK2 of LNCaP cells; assay: CK2 activity in lysates of treated LNCaP cells (radiometric test); assay type: cell-based, human; conditions: for endogenous CK2 activity of LNCaP cells: from 25 μM, 24 h or 48 h, relative to untreated cells
Protocol: The CK2 activity was determined using a radiometric test procedure. The relative activities of the samples were each relative to untreated cells. White bars show the CK2 activity after 24 h; grey bars show the CK2 activity after 48 h incubation with each inhibitor. For samples (A) treated with TF, double determinations were carried out (the mean value is given in each case).
LNCaP cells were incubated with TF in the same manner as in the experiments described above. After 24 h or 48 h, the CK2 activity of lysates was measured using radiometric CK2 testing. This investigation provided an indication as to whether the inhibition of TF found with the isolated enzyme could be observed in cellular systems. […] Cells were incubated for 24 h or 48 h with 25 μM, 50 μM or 75 μM of TF and then washed and lysed. The relative CK2 activity was calculated from these cell lysates. The reference was the CK2 activity of cell lysates from untreated cells incubated for corresponding periods. In order to compensate for any fluctuations in the radiometric test, in the case of TF, two samples per parameter were measured. As a qualitative control, the TBB samples were used and measured individually.
The observed reduction in CK2 activity was thus due to modulation of the CK2 enzyme activity. […] Altogether, it can be seen that TF reduces the endogenous CK2 activity in LNCaP cells. […] Proof of the inhibition of intracellular CK2 is provided by the ability of TF to permeate cells.

[4] = prior art; cited from earlier work
CK2α (CK2a) = CK2α (CK2a) (Homo sapiens (Human), UniProt P68400); assay: Reaction Biology radiometric kinase selectivity test; assay type: biochemical; conditions: 10 μM TF, 10 μM ATP; read-out: residual activity CK2α
Chain of CK2α (CK2a) (P68400 whole entry): as the sequence (P68400 whole entry) above

Aurora A = Aurora A (Homo sapiens (Human), UniProt O14965); assay: as above; assay type: biochemical; conditions: 10 μM TF, 10 μM ATP, relative kinase activity
Protocol: (§1) The listed PKs were incubated with 10 μM TF and 10 μM ATP. Next, the relative percentage kinase activity was determined (mean value from n=2). 100% activity was defined as the activity of the respective kinase in the absence of TF. The PK grouping was in accordance with Manning et al. (2002).
(§2) After the inhibitory potency of TF had been able to be established in LNCaP cells, the possibility that TF could be a selective CK2 inhibitor had to be investigated. To this end, the inhibiting effect of TF on 63 isolated human protein kinases (PK) was investigated by the firm “Reaction Biology” (Malvern, Pa., USA). These included representatives of PKs from all main groups of the human kinome (Manning et al., 2002). The results of this investigation are shown in FIG. 8, classified into the main human PK groups. In this series of tests, all of the PKs were each incubated with 10 μM of ATP and 10 μM of TF. In a subsequent radiometric test, the respective kinase activity with respect to a sample without TF was determined. Since the KM values of PK with respect to ATP occasionally differed substantially (Knight and Shokat, 2005), the results only allow a semi-quantitative comparison of inhibition by TF to be made. […] However, the different test parameters, such as substrate and ATP concentration, buffer, etc., must be taken into account and so a direct comparison of the inhibition data as a percentage is not possible at this point. The seven PKs which were inhibited the most strongly (>70%) are listed separately in Table 3.

CK2α′ (CK2a2) = CK2α′ (CK2a2) (Homo sapiens (Human), UniProt P19784); assay: as above; assay type: biochemical; conditions: 10 μM TF, 10 μM ATP; read-out: residual activity CK2α′
Protocol: as §1, §2

FLT4/VEGFR3 = FLT4/VEGFR3 (Homo sapiens (Human), UniProt P35916); assay: as above; assay type: biochemical; conditions: 10 μM TF, 10 μM ATP, relative kinase activity
Chain of FLT4/VEGFR3 (P35916 25-1363): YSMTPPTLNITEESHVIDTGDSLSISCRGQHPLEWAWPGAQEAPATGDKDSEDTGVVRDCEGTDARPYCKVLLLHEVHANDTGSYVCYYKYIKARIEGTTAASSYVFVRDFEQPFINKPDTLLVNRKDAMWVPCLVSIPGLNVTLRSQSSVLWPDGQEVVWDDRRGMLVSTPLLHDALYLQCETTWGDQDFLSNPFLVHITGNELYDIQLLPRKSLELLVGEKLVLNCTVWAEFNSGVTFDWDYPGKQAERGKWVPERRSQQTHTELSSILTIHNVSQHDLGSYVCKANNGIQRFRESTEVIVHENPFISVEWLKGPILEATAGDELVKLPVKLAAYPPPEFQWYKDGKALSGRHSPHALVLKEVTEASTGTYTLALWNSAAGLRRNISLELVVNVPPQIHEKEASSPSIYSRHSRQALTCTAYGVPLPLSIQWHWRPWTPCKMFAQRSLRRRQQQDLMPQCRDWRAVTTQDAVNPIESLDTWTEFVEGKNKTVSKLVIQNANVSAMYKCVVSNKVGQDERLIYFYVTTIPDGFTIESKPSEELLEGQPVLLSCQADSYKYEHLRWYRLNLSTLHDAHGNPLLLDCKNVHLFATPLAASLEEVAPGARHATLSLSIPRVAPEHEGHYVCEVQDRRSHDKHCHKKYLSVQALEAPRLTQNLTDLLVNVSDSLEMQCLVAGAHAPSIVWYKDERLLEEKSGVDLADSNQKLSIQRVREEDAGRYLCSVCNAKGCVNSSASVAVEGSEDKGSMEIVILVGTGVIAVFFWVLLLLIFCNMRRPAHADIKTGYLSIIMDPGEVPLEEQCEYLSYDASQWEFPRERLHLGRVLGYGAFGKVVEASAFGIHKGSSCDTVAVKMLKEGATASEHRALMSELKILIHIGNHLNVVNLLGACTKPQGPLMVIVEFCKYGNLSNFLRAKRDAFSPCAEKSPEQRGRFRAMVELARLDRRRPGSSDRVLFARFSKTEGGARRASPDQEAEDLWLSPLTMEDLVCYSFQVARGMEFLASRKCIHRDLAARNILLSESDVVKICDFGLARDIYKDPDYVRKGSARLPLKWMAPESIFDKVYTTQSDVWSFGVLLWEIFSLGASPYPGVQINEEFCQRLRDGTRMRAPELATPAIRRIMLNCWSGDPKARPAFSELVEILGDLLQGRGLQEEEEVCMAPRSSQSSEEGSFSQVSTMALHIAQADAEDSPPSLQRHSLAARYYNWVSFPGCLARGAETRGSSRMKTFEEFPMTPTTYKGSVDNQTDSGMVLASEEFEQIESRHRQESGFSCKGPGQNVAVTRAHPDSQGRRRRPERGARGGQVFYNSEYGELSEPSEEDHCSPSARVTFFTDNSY
Protocol: as §1, §2

IRAK4 = IRAK4 (Homo sapiens (Human), UniProt Q9NWZ3); assay: as above; assay type: biochemical; conditions: 10 μM TF, 10 μM ATP
Chain of IRAK4 (Q9NWZ3 whole entry): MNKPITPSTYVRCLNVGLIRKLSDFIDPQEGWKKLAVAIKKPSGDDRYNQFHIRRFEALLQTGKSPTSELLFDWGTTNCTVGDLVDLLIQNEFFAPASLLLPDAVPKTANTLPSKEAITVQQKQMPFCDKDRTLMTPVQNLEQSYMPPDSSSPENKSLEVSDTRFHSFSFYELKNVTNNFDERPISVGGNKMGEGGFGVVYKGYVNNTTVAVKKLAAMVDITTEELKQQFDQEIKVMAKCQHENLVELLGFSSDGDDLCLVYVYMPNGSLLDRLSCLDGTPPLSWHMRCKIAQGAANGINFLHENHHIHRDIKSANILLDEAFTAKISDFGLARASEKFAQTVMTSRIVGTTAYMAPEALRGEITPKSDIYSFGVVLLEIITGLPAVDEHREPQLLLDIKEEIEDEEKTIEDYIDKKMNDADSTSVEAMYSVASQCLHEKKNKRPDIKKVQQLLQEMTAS
Protocol: as §1, §2

KDR/VEGFR2 = KDR/VEGFR2 (Homo sapiens (Human), UniProt P35968); assay: as above; assay type: biochemical; conditions: 10 μM TF, 10 μM ATP, relative kinase activity
Chain of KDR/VEGFR2 (P35968 20-1356): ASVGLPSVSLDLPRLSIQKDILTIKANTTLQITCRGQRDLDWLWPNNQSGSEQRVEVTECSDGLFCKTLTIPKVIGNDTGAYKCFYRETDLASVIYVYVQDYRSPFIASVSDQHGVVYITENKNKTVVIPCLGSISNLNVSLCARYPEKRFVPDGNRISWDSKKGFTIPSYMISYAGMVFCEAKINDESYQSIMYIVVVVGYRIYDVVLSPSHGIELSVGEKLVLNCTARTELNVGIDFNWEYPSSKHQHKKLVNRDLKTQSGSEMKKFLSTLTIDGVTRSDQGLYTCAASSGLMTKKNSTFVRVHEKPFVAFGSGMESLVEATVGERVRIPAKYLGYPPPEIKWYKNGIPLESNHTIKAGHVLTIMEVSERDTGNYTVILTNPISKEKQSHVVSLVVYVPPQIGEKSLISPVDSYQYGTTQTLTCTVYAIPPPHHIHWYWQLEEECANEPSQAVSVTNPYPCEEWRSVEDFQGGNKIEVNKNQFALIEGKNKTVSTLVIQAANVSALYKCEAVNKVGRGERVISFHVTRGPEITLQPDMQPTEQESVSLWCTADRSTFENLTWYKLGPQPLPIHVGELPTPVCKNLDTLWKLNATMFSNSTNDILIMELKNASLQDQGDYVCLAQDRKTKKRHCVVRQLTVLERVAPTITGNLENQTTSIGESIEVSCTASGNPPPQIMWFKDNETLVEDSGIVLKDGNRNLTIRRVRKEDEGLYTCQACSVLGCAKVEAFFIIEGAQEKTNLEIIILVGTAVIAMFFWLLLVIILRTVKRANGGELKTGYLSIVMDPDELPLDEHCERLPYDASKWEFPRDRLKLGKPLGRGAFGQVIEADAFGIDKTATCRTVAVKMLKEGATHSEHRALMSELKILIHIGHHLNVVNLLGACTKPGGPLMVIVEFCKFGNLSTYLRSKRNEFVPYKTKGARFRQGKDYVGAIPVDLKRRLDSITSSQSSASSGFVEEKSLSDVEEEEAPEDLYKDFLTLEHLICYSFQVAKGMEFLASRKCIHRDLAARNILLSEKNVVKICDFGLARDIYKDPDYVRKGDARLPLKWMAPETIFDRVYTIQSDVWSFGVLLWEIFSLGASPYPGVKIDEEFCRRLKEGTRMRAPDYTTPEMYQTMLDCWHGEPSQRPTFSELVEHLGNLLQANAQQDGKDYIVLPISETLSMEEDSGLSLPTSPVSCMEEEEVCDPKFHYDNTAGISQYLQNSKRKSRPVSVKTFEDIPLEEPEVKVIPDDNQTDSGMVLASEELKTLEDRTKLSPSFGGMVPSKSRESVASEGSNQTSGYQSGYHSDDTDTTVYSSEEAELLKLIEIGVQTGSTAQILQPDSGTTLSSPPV
Protocol: as §1, §2

LBK1 = LBK1 (Homo sapiens (Human), UniProt Q15831); assay: as above; assay type: biochemical; conditions: 10 μM TF, 10 μM ATP
Protocol: as §1, §2

LCK = LCK (Homo sapiens (Human), UniProt P06239); assay: as above; assay type: biochemical; conditions: 10 μM TF, 10 μM ATP, relative kinase activity
Protocol: as §1, §2

MAPK14 = MAPK14 (Homo sapiens (Human), UniProt Q16539); assay: as above; assay type: biochemical; conditions: 10 μM TF, 10 μM ATP
Protocol: as §1, §2

PAK4 = PAK4 (Homo sapiens (Human), UniProt O96013); assay: as above; assay type: biochemical; conditions: 10 μM TF, 10 μM ATP
Protocol: as §1, §2

PIM1 = PIM1 (Homo sapiens (Human), UniProt P11309); assay: as above; assay type: biochemical; conditions: 10 μM TF, 10 μM ATP, relative kinase activity
Protocol: as §1, §2

PKD2/PRKD2 = PKD2/PRKD2 (Homo sapiens (Human), UniProt Q9BZL6); assay: as above; assay type: biochemical; conditions: 10 μM TF, 10 μM ATP, relative kinase activity
Chain of PKD2/PRKD2 (Q9BZL6 whole entry): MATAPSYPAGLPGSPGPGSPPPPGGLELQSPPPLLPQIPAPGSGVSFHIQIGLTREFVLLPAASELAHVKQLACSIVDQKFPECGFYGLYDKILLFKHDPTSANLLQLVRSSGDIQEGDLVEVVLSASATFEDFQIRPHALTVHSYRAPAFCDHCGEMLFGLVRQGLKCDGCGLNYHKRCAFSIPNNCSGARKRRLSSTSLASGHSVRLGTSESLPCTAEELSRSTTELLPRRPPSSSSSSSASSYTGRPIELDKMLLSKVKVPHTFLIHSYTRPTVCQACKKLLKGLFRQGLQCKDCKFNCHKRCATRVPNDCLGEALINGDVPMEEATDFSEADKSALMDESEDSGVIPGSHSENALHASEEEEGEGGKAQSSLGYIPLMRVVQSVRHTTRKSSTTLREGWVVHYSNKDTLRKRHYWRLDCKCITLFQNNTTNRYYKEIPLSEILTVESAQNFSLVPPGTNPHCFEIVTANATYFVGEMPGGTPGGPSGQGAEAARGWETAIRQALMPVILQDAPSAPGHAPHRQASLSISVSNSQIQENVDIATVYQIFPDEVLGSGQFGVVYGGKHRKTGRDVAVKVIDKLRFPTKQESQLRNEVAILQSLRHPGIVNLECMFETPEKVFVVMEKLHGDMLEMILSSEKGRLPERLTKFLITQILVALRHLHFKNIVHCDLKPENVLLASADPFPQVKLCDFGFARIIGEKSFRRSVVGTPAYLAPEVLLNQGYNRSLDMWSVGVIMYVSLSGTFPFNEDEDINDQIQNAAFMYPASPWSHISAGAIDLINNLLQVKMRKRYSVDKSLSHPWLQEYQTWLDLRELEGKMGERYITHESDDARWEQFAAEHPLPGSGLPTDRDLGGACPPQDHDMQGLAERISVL
Protocol: as §1, §2

SGK1 (d1-59, S422D) = SGK1 (d1-59, S422D) (Homo sapiens (Human), UniProt O00141, S422D); assay: as above; assay type: biochemical; conditions: 10 μM TF, 10 μM ATP, relative kinase activity
Chain of SGK1 (d1-59, S422D) (O00141 60-431 S422D): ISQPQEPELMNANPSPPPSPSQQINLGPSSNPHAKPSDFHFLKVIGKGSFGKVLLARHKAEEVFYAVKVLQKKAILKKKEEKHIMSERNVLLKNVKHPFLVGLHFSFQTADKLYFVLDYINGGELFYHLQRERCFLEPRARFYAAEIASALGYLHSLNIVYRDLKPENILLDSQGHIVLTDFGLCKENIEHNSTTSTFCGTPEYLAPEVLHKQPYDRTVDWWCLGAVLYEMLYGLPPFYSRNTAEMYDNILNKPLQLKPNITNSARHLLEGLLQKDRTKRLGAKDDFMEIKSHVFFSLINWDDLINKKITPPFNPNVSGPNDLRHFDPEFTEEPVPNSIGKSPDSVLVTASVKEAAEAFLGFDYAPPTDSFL
Protocol: as §1, §2

[5] = test system: 63 isolated human protein kinases; assay: Selectivity profile over 63 isolated human protein kinases; assay type: biochemical; conditions: 10 μM TF, 10 μM ATP
Protocol: as §1
After the inhibitory potency of TF had been able to be established in LNCaP cells, the possibility that TF could be a selective CK2 inhibitor had to be investigated. To this end, the inhibiting effect of TF on 63 isolated human protein kinases (PK) was investigated by the firm “Reaction Biology” (Malvern, Pa., USA). These included representatives of PKs from all main groups of the human kinome (Manning et al., 2002). The results of this investigation are shown in FIG. 8, classified into the main human PK groups. In this series of tests, all of the PKs were each incubated with 10 μM of ATP and 10 μM of TF. In a subsequent radiometric test, the respective kinase activity with respect to a sample without TF was determined. Since the KM values of PK with respect to ATP occasionally differed substantially (Knight and Shokat, 2005), the results only allow a semi-quantitative comparison of inhibition by TF to be made. […]

Compound: CC1=C(Br)COc2c1ccc(O)c2Br [DBC, 3,8-dibromo-7-hydroxy-4-methyl-chromene]
IC50 (CK2): 100 nM

Compound: C=CC1=C(C)c2cc3[n-]c(cc4nc(cc5[n-]c(cc1n2)c(C)c5C=C)C(C)=C4CCC(=O)O)c(CCC(=O)O)c3C.[Fe+2] [Haematin]
IC50 (CK2): 550 nM

Compound: O=C(O)Cc1c2ccccc2n2c1[nH]c(=O)c1ccccc12 [IQA, (5-oxo-5,6-dihydroindolo[1,2-a]quinazolin-7-yl) acetic acid]
stability in aqueous media [1]: unstable in aqueous media

Compound: O=c1c2c(O)cccc2oc2c([N+](=O)[O-])ccc(O)c12 [MNX, 1,8-dihydro-4-nitroxanthen-9-one]
IC50 (CK2): 400 nM

IC50 (CK2 holoenzyme): 2400 nM
Compound: CCOC(=O)c1oc2c(Cl)c(Cl)c(OC(C)=O)c(C#N)c2c1N [Ric138]

CK2-activity at 10 μM (CK2 holoenzyme): 61%^
Compound: CC(C)=CC(=O)c1coc2ccc(O)cc12 [Ric149]

IC50 (CK2 holoenzyme): 200 nM
Compound: CC(=O)Oc1c(Cl)c(Cl)c2oc(C(=O)C=C(C)C)c(N)c2c1C#N [Ric152]

CK2-activity at 10 μM (CK2 holoenzyme): 110%^
Compound: CCOC(=O)c1oc2ccc(OC(C)=O)c(CNC(C)=O)c2c1NC(C)=O [RicFur]

Compound: Brc1c(Br)c(Br)c2[nH]nnc2c1Br [TBB, 4,5,6,7-tetrabrombenzotriazole]
viability of LNCaP cells (LNCaP cells; 25 μM, 72 h): no effects were observed
viability at 75 µM (LNCaP cells; 24 h): 90%
viability at 75 µM (LNCaP cells; 48 h): 45%
viability at 75 µM (LNCaP cells; 72 h): 17%
bands of the 89 kDa PARP fragment ([2]; 25 μM): a faint band could be seen at 89 kDa
bands of the 89 kDa PARP fragment ([2]; from 50 μM, 24 h and 48 h): almost identical results
CK2 activity of LNCaP cell lysate ([3]; 75 μM, 24 h, called most probably a rogue result): 90%
endogenous CK2 activity of LNCaP cells [3]: 50%
solubility in water [4]: relatively poor solubility in water

mode of inhibition (CK2 holoenzyme; IC50 at 8 different ATP concentrations): ATP competitive inhibitor
Ki (CK2 holoenzyme; Y-axis intersection of IC50 vs ATP concentration (8 ATP concentrations), read-out: inhibition constant Ki): 14.7 nM
IC50 (CK2 holoenzyme): 30 nM
remaining activity at 10 µM (CK2α (CK2a)): 24%
Activity Aurora A (Aurora A): 11.00%
remaining activity at 10 µM (CK2α′ (CK2a2)): 35%
Activity FLT4/VEGFR3 (FLT4/VEGFR3): 19.68%
kinase activity IRAK4 (IRAK4): clear increase in activity
Activity KDR/VEGFR2 (KDR/VEGFR2): 13.05%
kinase activity LBK1 (LBK1): clear increase in activity
Activity LCK (LCK): 29.20%
kinase activity MAPK14 (MAPK14): clear increase in activity
kinase activity PAK4 (PAK4): clear increase in activity
Activity PIM1 (PIM1): 19.90%
Activity PKD2/PRKD2 (PKD2/PRKD2): 20.90%
Activity SGK1 (d1-59, S422D) (SGK1 (d1-59, S422D)): 14.16%
Compound: Cc1ccc(N/C=C2\C(=O)CCc3c2oc2c(Cl)c(Cl)c(O)cc32)cc1 [TF, (Z)-6,7-dichloro-1,4-dihydro-8-hydroxy-4-[(4-methylphenylamino)methylene]-dibenzo[b,d]furan-3(2H)-one]
viability at 25 µM (LNCaP cells; 25 μM, 24 h): 45%
viability at 25 µM (LNCaP cells; 25 μM, 48 h): 37%
viability at 25 µM (LNCaP cells; 25 μM, 72 h): 14%
viability at 50 µM (LNCaP cells; 24 h): 30%
viability at 50 µM (LNCaP cells; 48 h): 15%
viability at 50 µM (LNCaP cells; 72 h): 5%
viability at 75 µM (LNCaP cells; 24 h): 31%
viability at 75 µM (LNCaP cells; 48 h): 12%
viability at 75 µM (LNCaP cells; 72 h): 3%
bands of the 89 kDa PARP fragment ([2]; from 50 μM, 24 h and 48 h): increased in intensity in a concentration-dependent manner
endogenous CK2 activity of LNCaP cells [3]: 50%
number of the 63 PK inhibited (reduction in activity of >50%) in addition to CK2α and CK2α′ [5]: twelve

Compound: O=c1cc(-c2ccc(O)cc2)oc2cc(O)cc(O)c12 [apigenin]
IC50 (CK2): ~1000 nM
